# Source: US20020164617A1, “Affinity selection-based screening of hydrophobic proteins” (NeoGenesis Pharmaceuticals, Inc., priority 2000, published 2002)
# pKd: −log10 of the molar value.
# Legend:
# m2 mAChR = molecular target: T1, m2 mAChR (Sus scrofa, UniProt P06199); experiment: 3H-NMS binding assay by the method of Rinken and Haga; details: m2 mAChR alone, without accessory protein; read-out: apparent Kd
# T1 construct: made in house
# T1 sequence (P06199 1-466): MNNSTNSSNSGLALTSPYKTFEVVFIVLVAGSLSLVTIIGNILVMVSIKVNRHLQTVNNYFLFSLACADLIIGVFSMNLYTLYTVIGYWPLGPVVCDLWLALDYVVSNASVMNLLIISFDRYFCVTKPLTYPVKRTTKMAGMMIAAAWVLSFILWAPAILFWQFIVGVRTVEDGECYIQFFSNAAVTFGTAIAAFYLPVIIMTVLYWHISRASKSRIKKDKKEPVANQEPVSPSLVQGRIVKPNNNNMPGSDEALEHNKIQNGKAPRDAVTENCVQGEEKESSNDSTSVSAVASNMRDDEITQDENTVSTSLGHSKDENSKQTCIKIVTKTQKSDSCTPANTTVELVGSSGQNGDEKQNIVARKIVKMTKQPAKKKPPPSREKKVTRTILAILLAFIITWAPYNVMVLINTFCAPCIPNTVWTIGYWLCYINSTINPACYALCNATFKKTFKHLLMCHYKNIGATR
# [1] = molecular target: T2, m2 mAChR-G∀i1∃1(2-GDP complex (Sus scrofa, UniProt P06199)); experiment: as above
# T2 construct: made in house
# T2 sequence (P63096 whole entry partner, one chain of several): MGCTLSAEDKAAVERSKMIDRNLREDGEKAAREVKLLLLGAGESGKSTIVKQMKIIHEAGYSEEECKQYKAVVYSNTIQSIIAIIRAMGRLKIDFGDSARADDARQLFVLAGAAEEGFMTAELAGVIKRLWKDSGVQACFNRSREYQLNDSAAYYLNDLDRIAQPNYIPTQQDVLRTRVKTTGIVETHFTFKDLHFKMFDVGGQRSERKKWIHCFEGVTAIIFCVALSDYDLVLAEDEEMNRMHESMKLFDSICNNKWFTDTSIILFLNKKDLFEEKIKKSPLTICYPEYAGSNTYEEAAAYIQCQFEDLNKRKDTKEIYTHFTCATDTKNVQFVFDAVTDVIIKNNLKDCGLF
# T2 sequence (P62873 whole entry partner, one chain of several): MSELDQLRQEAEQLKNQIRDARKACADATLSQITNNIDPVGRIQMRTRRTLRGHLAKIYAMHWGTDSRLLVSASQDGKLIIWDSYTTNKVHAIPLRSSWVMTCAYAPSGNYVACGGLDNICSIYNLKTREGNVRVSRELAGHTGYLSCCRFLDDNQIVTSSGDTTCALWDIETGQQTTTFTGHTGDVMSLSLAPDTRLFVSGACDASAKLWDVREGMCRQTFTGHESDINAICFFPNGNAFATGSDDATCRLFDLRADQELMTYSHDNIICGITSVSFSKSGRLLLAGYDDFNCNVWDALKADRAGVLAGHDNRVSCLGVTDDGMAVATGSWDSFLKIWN
# T2 sequence (P59768 2-68 partner limits assumed, one chain of several): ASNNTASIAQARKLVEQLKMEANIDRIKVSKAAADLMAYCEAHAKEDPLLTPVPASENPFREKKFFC
compound,measurement,setting,value
"C[N+]1(C)[C@@H]2C[C@@H](OC(=O)[C@H](CO)c3ccccc3)C[C@H]1[C@@H]1O[C@@H]12 [3H-NMS, N-methylscapolamine]",pKd,m2 mAChR,9.77
same,pKd,[1]; m2 mAChR with G protein heterotrimer-GDP as accessory protein,6.36
same,enhancement of affinity of m2 mAChR in presence of accessory protein complex,[1]; with vs without G∀i1∃1(2-GDP complex),5 fold
